Measured values from patent US10562935B2, “Stapled peptides and uses thereof” (London Health Sciences Centre Research Inc., priority 2015, dated 2020).
Bridges are numbered along the chain shown (N, C = ends).

Tests used:
[1] = test system: RHAMM-overexpressing (LR21) cells; experiment: Cell migration assay (Boyden chamber, Chemicon ECM510); assay type: cell-based; settings: for Migration (% inhib.): % inhibition relative to positive control
Procedure, shortened: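 Serum-starved LR21 cells (7.5×10^4) placed in the upper Boyden chamber with or without 10 ng/mL peptide, with 30% FBS in DMEM as lower-chamber chemoattractant. Cells crossing the membrane after 20 h quantified by CyQUANT GR fluorescence (480/520 nm); mean of n=3, compared with 30% serum control.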

[2] = Function blocking score: total percent inhibition over migration, invasion, inflammation and fibrosis assays divided by number of assays; assay type: cell-based; settings: total percent inhibition for all assays tested divided by number of assays
Protocol: As documented in the Examples hereinabove, a variety of cyclized peptides were produced that contained the HA-binding domain 1 (HABD1), HA-binding domain 2 (HABD2), or both HABD1 and HABD2. These peptides were evaluated for helicity, direct HA binding and in a number of cell-based bioassays (effects on migration, invasion, NFkB activation, and TGFβ1 production) that are relevant to inflammation and fibrosis. The relationships amongst helicity, HA-binding, and biofunction were evaluated. Peptides were divided into three groups for this analysis: (1) peptides containing HABD1 (“HABD1”); (2) peptides containing HABD2 (“HABD2”); and peptides containing most or all of HABD1 and all of HABD2 (“HABD1+HABD2”). R^2 values were calculated to quantify the relationships between helicity, HA-binding, and biofunction were evaluated.
The results of this analysis for the HABD1 peptides are shown below in Tables 15 and 16. Table 16 provides a function blocking scores for each of the tested peptides and provides R^2 values showing the relationship between HA binding and helicity (“HA binding vs. CD”), HA binding and function-blocking score (“HA binding vs. FBS”) and helicity vs. function-blocking score (“CD vs. FBS”). The same type of summaries are provided for the HABD2 peptides in Tables 17 and 18 below, and for the HABD1+HABD2 peptides in Tables 19 and 20 below.
Function blocking scores were calculated as the total percent inhibition achieved by the peptide for all assays the peptides were tested in, divided by the number of assays. Assays included migration, invasion, inflammation and fibrosis assays. Not all peptides were tested all of the assays. All peptides were included for deriving R^2 values (Pearson's formula).

[3] = test system: IMR90 human fetal lung fibroblasts; experiment: Fibrosis assay: active TGF-β levels in TGF-β treated fibroblasts (ELISA); assay type: cell-based; settings: % inhibition relative to positive control
Protocol: Compounds 132, 133, 135, 150, 152, 157-161, 265-269, 275, 277, and 278 were evaluated for their ability to inhibit fibrosis. IMR90 human fetal lung fibroblasts were obtained from ATCC and maintained in DMEM supplemented with 10% fetal bovine serum. In order to examine the effect of peptides on myofibroblast differentiation, 80% confluent cultures were serum starved overnight prior to addition of TGF-β (2 ng/mL, R&D Systems). Cells were treated with TGF-β for 24 hours prior to addition of peptides (10 ng/mL). 48 hours after addition of peptides, culture supernatants were collected and levels of active TGF-β measured using commercially available TGF-β ELISA (Quantikine, R&D Systems).
Values are the Mean and SDM n=3 replicates. *p<0.05, **p<0.01, ***p<0.001 when compared to the +TGFβ1 control. In FIG. 47, where bars are labeled with two compound numbers (“133/150” and “135/152”) this means that the data were pooled for the indicated compounds, i.e., for the non-acetylated and acetylated versions of the indicated peptides.

[4] = Direct HA-binding ELISA of biotinylated peptides on HA coated plates (Example 4); parameters: key to HA binding: absorbance (color) read at 450 nm; settings: for HA binding: as repeated in tables 16, 18, 20; for HA direct binding (OD): optical density, summary tables 15, 17, 19
Procedure, shortened: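 N-terminally biotinylated peptides (AEEA spacer) added to HA-coated wells at 0.8 or 0.08 μM, n=3, overnight at 4° C with shaking; biotin-labeled 7 kDa RHAMM as positive control. Bound peptide detected with streptavidin-HRP (1 hr, room temperature) and TMB substrate (5-10 min), absorbance at 450 nm.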

Row | Substance | inhibition of cell migration (in words) ([1]; 10 ng/mL peptide, 20 hours, compared to 30% serum control) | Migration (% inhib.) [1] [% inhib.] | Function blocking score (FBS) [2] | Fibrosis (% inhib.) [3] [% inhib.] | HA binding [4] | HA direct binding (OD) [4] [OD]
1 | Ac-(cyclo-5,9)-NLKQ[EIKHK]VKLKDE-NH2 (Ac-NLKQEIKHKVKLKDE-NH2; lactam 5-9; SMILES CC[C@H](C)[C@@H]1NC(=O)[C@@H](NC(=O)[C@H](CCC(N)=O)NC(=O)[C@H](CCCCN)NC(=O)[C@H](CC(C)C)NC(=O)[C@H](CC(N)=O)NC(C)=O)CCC(=O)NCCCC[C@@H](C(=O)N[C@H](C(=O)N[C@@H](CCCCN)C(=O)N[C@@H](CC(C)C)C(=O)N[C@@H](CCCCN)C(=O)N[C@@H](CC(=O)O)C(=O)N[C@@H](CCC(=O)O)C(N)=O)C(C)C)NC(=O)[C@H](Cc2c[nH]cn2)NC(=O)[C@H](CCCCN)NC1=O) [Compound 158] | significantly inhibit cell migration | 43 | 22 | 31 | 0.005 | 0.005
2 | Ac-(cyclo-4,8)-NLK[EKIKK]VVKLKDE-NH2 (Ac-NLKEKIKKVVKLKDE-NH2; lactam 4-8; SMILES CC[C@H](C)[C@@H]1NC(=O)[C@H](CCCCN)NC(=O)[C@@H](NC(=O)[C@H](CCCCN)NC(=O)[C@H](CC(C)C)NC(=O)[C@H](CC(N)=O)NC(C)=O)CCC(=O)NCCCC[C@@H](C(=O)N[C@H](C(=O)N[C@H](C(=O)N[C@@H](CCCCN)C(=O)N[C@@H](CC(C)C)C(=O)N[C@@H](CCCCN)C(=O)N[C@@H](CC(=O)O)C(=O)N[C@@H](CCC(=O)O)C(N)=O)C(C)C)C(C)C)NC(=O)[C@H](CCCCN)NC1=O) [Compound 157] |  | 0 | 8.6 | 38 | 0.02 | 0.02
3 | Ac-(cyclo-6,10)-NLKQK[EKHVK]KLKDE-NH2 (Ac-NLKQKEKHVKKLKDE-NH2; lactam 6-10; SMILES CC(=O)N[C@@H](CC(N)=O)C(=O)N[C@@H](CC(C)C)C(=O)N[C@@H](CCCCN)C(=O)N[C@@H](CCC(N)=O)C(=O)N[C@@H](CCCCN)C(=O)N[C@H]1CCC(=O)NCCCC[C@@H](C(=O)N[C@@H](CCCCN)C(=O)N[C@@H](CC(C)C)C(=O)N[C@@H](CCCCN)C(=O)N[C@@H](CC(=O)O)C(=O)N[C@@H](CCC(=O)O)C(N)=O)NC(=O)[C@H](C(C)C)NC(=O)[C@H](Cc2c[nH]cn2)NC(=O)[C@H](CCCCN)NC1=O) [Compound 159] |  | 0 | 17 | 50 | 0.009 | 0.009
